Experimental data reported in PMC11513924, “Addressing the Intracellular Vestibule of the Plasmodial Lactate Transporter PfFNT by p-Substituted Inhibitors Amplifies In Vitro Activity” (Journal of Medicinal Chemistry, 2024).
Numbering of substitutions follows the chain as printed.

Tests used:
PfFNT = biological target: T1, PfFNT (Plasmodium falciparum, UniProt O77389); assay: Fluorescence cross-correlation spectroscopy (FCCS) competition binding to solubilized PfFNT-GFP
T1 construct: expressed in transfected cells; membranes solubilized
T1 sequence (O77389 1-309): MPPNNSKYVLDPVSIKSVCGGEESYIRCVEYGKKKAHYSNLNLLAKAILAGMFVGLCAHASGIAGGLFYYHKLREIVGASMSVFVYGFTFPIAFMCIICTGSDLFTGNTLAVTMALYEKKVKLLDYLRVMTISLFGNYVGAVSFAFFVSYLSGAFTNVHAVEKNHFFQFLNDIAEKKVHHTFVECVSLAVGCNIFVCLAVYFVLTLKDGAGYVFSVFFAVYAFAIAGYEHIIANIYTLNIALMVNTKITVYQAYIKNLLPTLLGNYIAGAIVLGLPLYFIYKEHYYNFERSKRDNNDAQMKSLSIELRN
Outline: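 Solubilized membranes from stably transfected cells expressing C-terminally GFP-tagged PfFNT were competed against BH267.meta-DY647 tracer, with competitor titrated from 100 pM to 100 μM. IC50 came from the dual-labeled complex concentration, recorded 10 × 5 s with 488/633 nm excitation; Ki calculated by Cheng-Prusoff from the tracer KD.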

PfFNT G107S = biological target: T2, PfFNT G107S (Plasmodium falciparum, UniProt O77389, G107S); assay: Yeast-based 14C-lactate transport assay, PfFNT G107S resistance mutant; assay type: cell-based
T2 construct: expressed in transfected cells; host or cells: Saccharomyces cerevisiae (yeast transport assay; strain as for wild type, inferred from the shared method)
T2 sequence (O77389 1-309 G107S): T1 sequence (O77389 1-309) with G107S
Procedure: Lactate transport functionality of PfFNT was assayed as described before.[4] Briefly, Saccharomyces cerevisiae W303-1A jen1Δady2Δcells[32] (MATa, can1-100, ade2-loc, his3-11-15, leu2-3,-112, trp1-1-1, ura3-1, jen1::kanMX4, ady2::hphMX4) kindly provided by M. Casal expressing PfFNT was grown at 29 °C to an OD600 of 1 (±0.1). Harvested cells were resuspended to an OD600 of 50 (±5) in 50 mM HEPES/Tris, pH 6.8 (±0.1). 10–15 min prior to the assay, 80 μL of yeast suspension were added to 1 μL of DMSO with or without inhibitor in a 1.5 mL reaction tube at 18 °C. Twenty μL of L-lactate solution spiked with [1-^14C]-L-lactate (Hartmann Analytic) was added yielding a 1 mM inward gradient with 0.04 μCi label. Transport was stopped after 30 s by abrupt dilution with 1 mL of ice-cold water, vacuum filtration via GF/C filter membranes (Whatman), and washing with 7 mL of ice-cold water. The radio label was analyzed by liquid scintillation counting in 3 mL of scintillation cocktail (Rotiszint eco plus, Carl Roth) using a Packard TriCarb 2900 TR (PerkinElmer Inc.).
Transport assays in yeast were done in triplicate biological replicates. At least nine technical replicates were measured around the IC50 value, concentrations with no or full inhibition were determined from at least three technical replicates. EC50-values were determined from 2 to 4 biological replicates. IC50 and EC50 curves were fitted by the Hill equation with variable slope (Graph Pad Prism 10). Error bars denote ± SEM (for n ≥ 3) or ± range (for n = 2). For the EC50-value of 7a the error of the fitting of the curve is given. Cytotoxicity was determined from biological triplicates; error is shown as SEM.

HEK293 cells = assay type: cell-based; conditions: human
Procedure: (§1) HEK293T and HepG2 cells were precultured in Dulbecco’s modified Eagle medium with 10% fetal bovine serum (FBS, Gibco, #10270106) in 96-well plates (Sarstedt, TC-treated, #83.3924) at a density of 20,000 cells per well. For ATP quantification, commercial CellTiterGlo was used according to the manufacturer’s instructions. For the resazurin assay, the culture medium was removed, and the cells were incubated in 120 μL of a 66 μM resazurin solution in PBS (SigmaAldrich, #R7017) at 37 °C for 2 h, for fluorescence read-out (λex/λem = 544/590 nm) using a microplate reader (Spark, Tecan Group). Nuclei were counted by microscopy (ImageXpress MicroXL, Molecular Devices) after fixation with 4% paraformaldehyde in PBS, and 15 min incubation at room temperature with Hoechst33342. Quantification was done using the “Cell Proliferation High-Throughput” algorithm (MetaXpress Software, Molecular Devices). All values were normalized to vehicle control (DMSO).

HepG2 cells = assay type: cell-based; conditions: human
Procedure: as §1

[1] = Blood levels of compound in the SCID mouse model; assay type: in vivo
[2] = Lipophilicity log D7.4 by HPLC (OECD guideline); assay type: physicochemical; conditions: RP-8 HPLC column (ZORBAX Eclipse XDB-C8), pH 7.4
Procedure: Lipophilicity was determined according to the OECD Guidelines for the Testing of Chemicals no. […]. Briefly, the test compounds plus 9 standards (4-acetylpyridine, acetanilide, acetophenone, methyl benzoate, ethyl benzoate, benzophenone, phenyl benzoate, diphenyl ether, triphenylamine) were separated by HPLC with UV detection at 220 nm (Waters HPLC 1525 with tunable absorbance detector 486) using an RP-8 column (Agilent Technologies ZORBAX Eclipse XDB-C8 4.6 × 150 mm, 5 μm) at 20 °C. Eluents A (20 mM ammonium formate, pH 7.4) and B (methanol) were used to generate a gradient profile of 80% A–100% B (0–35 min), 100% B (35–37 min), 100% B–80% A (37–42 min), and 80% A (42–55 min) at a flow rate of 0.8 mL min^–1. The dead time was determined via the injection peak caused by the solvent. The log D7.4 values were calculated by correlating the capacity factors with the known values of the standards via polynomial fitting.

Row | Compound | Ki (PfFNT) [nM] | IC50 (PfFNT G107S) [nM] | concentration above which nuclei count (proliferation) starts to decline slightly (HEK293 cells) | concentration above which nuclei count (proliferation) starts to decline slightly (HepG2 cells) | blood concentration (peak) ([1]; oral 4 × 50 mg kg^–1) [μg mL^–1] | half-life ([1]; whole blood, oral 4 × 50 mg kg^–1, read-out: half-life from modeled blood profile) [h] | chromatographic logD [2]
1 | CCCNc1ccc(C(=O)/C=C(\O)C(F)(F)C(F)(F)F)cn1 [7e, 4,4,5,5,5-Pentafluoro-3-hydroxy-1-(6-(propylamino)pyridin-3-yl)pent-2-en-1-one] | 22 ± 8 | 630 | above 10 μM | above 10 μM | ~2 | 2 to 4 | 3.18
2 | CC(=O)Nc1ccc(C(=O)/C=C(\O)C(F)(F)C(F)(F)F)cn1 [8a, N-[5-(4,4,5,5,5-Pentafluoro-3-hydroxypent-2-enoyl)pyridin-2-yl]acetamide] | 35 ± 8 | 12000 | above 10 μM | above 10 μM | – | – | 1.7
